For three compounds, inhibition and IC50 results are on record in ChEMBL document CHEMBL4837249, “Discovery of Potent Antiallergic Agents Based on an o-Aminopyridinyl Alkynyl Scaffold” (J Med Chem, 2021).

For assay [1], the target named is RAC-alpha serine/threonine-protein kinase (Homo sapiens) (UniProt P31749). Nature of the assay: Inhibition of human recombinant PKBalpha at 500 nM radiometric scintillation counting analysis relative to control.
The next assay deals with RBL-2H3. Nature of the assay: Antiallergic activity against anti-DNP-IgE sensitized rat RBL-2H3 cells assessed as […] of degranulation by measuring beta-hexosaminidase release using P-nitrophenyl-N-acetyl-D-glucosamide as substrate at 0.2 uM measured after 1 hr by microplate reader relative to control. It is filed as functional.
Assay [2] concerns the target Macrophage colony-stimulating factor 1 receptor (Homo sapiens, UniProt P07333). Nature of the assay: Inhibition of human recombinant CSF1R using ATP/Ulight-TK peptide at 50 nM incubated for 15 mins.
Assay [3] concerns the target Tyrosine-protein kinase ABL1 (Homo sapiens, UniProt P00519). Briefly: Inhibition of human recombinant ABL1 using ATP/Ulight-TK peptide incubated for 15 mins.
The target in assay [4] is Proto-oncogene tyrosine-protein kinase Src (Homo sapiens, UniProt P12931). Briefly: Inhibition of human recombinant Src (1-530) by radiometric scintillation counting analysis.
Sequence of Proto-oncogene tyrosine-protein kinase Src (P12931 2-536 limits assumed): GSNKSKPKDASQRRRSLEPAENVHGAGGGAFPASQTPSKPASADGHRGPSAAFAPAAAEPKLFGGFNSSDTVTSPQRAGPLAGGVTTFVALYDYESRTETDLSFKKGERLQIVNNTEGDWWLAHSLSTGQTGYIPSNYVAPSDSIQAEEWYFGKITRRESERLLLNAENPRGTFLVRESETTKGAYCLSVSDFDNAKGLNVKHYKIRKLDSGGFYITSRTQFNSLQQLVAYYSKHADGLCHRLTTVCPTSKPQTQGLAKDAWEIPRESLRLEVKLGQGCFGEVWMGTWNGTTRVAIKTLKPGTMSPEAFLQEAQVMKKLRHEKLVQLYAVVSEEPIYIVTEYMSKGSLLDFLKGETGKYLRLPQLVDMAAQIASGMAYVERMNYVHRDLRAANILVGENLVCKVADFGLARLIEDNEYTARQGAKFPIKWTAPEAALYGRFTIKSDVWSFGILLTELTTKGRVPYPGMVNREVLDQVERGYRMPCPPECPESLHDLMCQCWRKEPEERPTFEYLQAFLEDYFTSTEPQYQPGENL
Assay [5] addresses Tyrosine-protein kinase Fyn (Homo sapiens, UniProt P06241). Nature of the assay: Inhibition of human full length recombinant Fyn by radiometric scintillation counting analysis.
The target of assay [6] is Tyrosine-protein kinase SYK (Homo sapiens) (UniProt P43405). Nature of the assay: Inhibition of human full length recombinant Syk at 50 nM by radiometric scintillation counting analysis relative to control.
Assay [7] concerns the target T1, Inhibitor of nuclear factor kappa-B kinase subunit alpha (Homo sapiens) (UniProt O15111).
T1 sequence (whole entry): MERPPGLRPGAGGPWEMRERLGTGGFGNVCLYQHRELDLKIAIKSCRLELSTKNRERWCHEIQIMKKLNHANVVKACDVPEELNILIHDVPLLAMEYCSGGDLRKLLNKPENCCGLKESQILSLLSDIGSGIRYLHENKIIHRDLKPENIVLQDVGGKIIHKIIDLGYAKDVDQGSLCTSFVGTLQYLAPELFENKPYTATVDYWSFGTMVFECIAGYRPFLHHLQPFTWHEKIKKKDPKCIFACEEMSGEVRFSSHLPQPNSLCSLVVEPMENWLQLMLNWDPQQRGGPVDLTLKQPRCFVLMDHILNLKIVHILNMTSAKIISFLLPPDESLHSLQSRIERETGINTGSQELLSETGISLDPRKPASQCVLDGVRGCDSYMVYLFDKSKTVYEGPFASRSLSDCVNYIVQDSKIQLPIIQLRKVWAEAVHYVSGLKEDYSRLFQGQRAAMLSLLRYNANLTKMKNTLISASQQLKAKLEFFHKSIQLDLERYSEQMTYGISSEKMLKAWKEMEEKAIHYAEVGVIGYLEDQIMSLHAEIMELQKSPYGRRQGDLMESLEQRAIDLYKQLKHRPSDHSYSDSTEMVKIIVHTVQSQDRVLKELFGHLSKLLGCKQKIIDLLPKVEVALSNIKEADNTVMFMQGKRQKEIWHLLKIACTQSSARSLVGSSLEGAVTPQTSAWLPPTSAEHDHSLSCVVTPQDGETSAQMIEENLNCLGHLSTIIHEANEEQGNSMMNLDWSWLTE
Briefly: Inhibition of human full length recombinant IKKalpha at 5 nM by radiometric scintillation counting analysis relative to control.

Assay [8] addresses Tyrosine-protein kinase Srms (Homo sapiens, UniProt Q9H3Y6). Nature of the assay: Inhibition of human SRMS by radiometric scintillation counting analysis.
Assay [9] deals with T1, Inhibitor of nuclear factor kappa-B kinase subunit alpha (Homo sapiens). Briefly: Inhibition of human full length recombinant IKKalpha at 50 nM by radiometric scintillation counting analysis relative to control.
For assay [10], the target named is T2, Tyrosine-protein kinase ITK/TSK (Homo sapiens) (UniProt Q08881).
T2 sequence (whole entry): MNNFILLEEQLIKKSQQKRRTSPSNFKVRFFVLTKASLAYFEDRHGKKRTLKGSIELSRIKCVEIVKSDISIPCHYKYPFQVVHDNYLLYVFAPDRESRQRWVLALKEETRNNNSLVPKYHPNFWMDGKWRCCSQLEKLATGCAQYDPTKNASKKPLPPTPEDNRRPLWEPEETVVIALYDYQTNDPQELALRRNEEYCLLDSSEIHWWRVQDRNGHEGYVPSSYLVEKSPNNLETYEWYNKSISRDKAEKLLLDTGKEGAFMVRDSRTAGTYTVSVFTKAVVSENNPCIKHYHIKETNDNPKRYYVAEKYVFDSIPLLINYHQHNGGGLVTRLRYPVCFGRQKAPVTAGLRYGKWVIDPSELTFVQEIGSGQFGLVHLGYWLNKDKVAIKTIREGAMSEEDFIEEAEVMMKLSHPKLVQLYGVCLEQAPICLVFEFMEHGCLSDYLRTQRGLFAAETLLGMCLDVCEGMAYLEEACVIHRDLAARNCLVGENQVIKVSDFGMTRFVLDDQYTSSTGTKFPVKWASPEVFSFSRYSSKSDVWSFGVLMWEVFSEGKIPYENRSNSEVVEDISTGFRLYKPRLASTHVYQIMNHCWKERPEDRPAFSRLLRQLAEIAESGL
Briefly: Inhibition of human recombinant ITK (352 to 617) at 50 nM by radiometric scintillation counting analysis relative to control.

Assay [11] addresses Tyrosine-protein kinase Blk (Homo sapiens, UniProt P51451). Nature of the assay: Inhibition of human full length recombinant BLK by radiometric scintillation counting analysis.
The target of assay [12] is Tyrosine-protein kinase CSK (Homo sapiens, UniProt P41240). Briefly: Inhibition of human full length recombinant CSK by radiometric scintillation counting analysis.
Sequence of Tyrosine-protein kinase CSK (P41240 whole entry): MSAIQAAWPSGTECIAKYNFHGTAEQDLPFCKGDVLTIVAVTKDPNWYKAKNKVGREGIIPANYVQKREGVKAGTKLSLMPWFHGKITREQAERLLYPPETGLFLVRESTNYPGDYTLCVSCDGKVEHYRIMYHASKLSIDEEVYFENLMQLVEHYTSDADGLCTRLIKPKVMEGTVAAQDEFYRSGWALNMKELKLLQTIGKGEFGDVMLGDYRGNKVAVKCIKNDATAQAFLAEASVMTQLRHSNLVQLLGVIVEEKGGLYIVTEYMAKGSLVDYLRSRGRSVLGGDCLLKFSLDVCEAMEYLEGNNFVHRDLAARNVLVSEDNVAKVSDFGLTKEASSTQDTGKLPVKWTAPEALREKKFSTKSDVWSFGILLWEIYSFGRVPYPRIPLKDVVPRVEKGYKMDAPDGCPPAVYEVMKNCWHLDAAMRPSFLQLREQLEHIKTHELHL
Assay [13] addresses Tyrosine-protein kinase Yes (Homo sapiens, UniProt P07947). Nature of the assay: Inhibition of human full length recombinant Yes by radiometric scintillation counting analysis.

SMILES strings stand for the structures. pIC50: −log10 of the molar value.

Sequence of Tyrosine-protein kinase Blk (P51451 whole entry): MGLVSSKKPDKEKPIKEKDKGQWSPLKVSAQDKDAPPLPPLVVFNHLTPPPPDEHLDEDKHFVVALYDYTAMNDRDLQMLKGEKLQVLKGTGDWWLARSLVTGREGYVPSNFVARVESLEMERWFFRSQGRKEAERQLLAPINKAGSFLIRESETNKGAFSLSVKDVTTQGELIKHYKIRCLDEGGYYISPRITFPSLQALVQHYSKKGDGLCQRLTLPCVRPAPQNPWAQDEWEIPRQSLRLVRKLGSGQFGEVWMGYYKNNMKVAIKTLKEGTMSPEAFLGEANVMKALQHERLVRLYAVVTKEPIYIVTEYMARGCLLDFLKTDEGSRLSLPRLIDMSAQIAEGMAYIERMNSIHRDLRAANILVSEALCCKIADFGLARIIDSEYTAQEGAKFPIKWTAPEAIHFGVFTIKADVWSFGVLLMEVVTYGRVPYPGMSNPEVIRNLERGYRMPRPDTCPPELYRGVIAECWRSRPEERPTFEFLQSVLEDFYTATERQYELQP
Sequence of Tyrosine-protein kinase Fyn (P06241 whole entry): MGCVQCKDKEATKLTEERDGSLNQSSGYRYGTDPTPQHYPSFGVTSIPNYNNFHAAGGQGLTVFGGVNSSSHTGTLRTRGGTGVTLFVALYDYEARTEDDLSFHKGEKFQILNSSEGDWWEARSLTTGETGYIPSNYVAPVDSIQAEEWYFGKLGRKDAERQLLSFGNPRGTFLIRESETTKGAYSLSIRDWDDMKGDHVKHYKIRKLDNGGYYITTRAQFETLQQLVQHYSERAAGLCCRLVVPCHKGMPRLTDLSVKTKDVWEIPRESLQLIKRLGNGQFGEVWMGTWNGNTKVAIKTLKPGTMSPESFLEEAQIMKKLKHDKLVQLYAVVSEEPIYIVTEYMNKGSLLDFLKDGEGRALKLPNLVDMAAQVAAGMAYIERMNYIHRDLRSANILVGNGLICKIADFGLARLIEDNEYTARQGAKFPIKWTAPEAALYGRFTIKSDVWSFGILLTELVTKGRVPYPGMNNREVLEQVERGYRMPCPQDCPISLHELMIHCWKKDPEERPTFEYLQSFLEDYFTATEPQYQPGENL
Sequence of Macrophage colony-stimulating factor 1 receptor (P07333 whole entry): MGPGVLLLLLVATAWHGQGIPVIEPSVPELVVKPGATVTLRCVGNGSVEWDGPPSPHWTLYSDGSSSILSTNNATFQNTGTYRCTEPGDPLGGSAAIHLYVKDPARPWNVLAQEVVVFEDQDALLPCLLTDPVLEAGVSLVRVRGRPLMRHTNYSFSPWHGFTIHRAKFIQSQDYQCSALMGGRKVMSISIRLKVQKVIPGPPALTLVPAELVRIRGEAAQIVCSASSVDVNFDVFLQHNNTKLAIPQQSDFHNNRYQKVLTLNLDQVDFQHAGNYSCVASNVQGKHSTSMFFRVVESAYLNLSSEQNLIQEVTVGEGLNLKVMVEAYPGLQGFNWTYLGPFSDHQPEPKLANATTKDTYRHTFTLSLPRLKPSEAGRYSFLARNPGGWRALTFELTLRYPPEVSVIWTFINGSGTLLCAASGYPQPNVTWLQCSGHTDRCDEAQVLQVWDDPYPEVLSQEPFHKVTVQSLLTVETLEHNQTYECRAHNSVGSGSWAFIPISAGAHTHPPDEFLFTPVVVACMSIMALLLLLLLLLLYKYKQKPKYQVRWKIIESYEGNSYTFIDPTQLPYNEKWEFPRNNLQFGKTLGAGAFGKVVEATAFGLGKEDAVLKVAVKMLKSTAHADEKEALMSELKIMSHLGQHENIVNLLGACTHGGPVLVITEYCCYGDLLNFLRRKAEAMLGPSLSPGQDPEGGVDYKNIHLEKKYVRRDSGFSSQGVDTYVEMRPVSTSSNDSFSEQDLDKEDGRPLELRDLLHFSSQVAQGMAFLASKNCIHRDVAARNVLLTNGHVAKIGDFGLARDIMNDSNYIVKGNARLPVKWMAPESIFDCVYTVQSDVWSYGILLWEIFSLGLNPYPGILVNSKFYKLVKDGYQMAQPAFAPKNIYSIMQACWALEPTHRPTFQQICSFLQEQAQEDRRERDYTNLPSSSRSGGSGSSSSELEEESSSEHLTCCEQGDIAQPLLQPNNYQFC
Sequence of RAC-alpha serine/threonine-protein kinase (Homo sapiens) (P31749 whole entry): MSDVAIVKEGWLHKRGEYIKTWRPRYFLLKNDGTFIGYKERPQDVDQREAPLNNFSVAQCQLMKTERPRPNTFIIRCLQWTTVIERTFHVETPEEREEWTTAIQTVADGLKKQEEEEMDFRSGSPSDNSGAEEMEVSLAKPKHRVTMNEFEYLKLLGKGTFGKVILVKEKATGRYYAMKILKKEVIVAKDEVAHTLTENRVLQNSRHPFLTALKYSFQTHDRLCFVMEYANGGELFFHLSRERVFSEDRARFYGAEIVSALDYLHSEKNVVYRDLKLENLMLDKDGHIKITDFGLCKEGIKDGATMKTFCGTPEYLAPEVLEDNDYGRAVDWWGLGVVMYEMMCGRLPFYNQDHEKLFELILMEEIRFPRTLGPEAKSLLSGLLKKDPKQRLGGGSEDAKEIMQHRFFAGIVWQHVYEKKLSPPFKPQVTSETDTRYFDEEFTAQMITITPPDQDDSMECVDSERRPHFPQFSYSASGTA
Sequence of Tyrosine-protein kinase Yes (P07947 whole entry): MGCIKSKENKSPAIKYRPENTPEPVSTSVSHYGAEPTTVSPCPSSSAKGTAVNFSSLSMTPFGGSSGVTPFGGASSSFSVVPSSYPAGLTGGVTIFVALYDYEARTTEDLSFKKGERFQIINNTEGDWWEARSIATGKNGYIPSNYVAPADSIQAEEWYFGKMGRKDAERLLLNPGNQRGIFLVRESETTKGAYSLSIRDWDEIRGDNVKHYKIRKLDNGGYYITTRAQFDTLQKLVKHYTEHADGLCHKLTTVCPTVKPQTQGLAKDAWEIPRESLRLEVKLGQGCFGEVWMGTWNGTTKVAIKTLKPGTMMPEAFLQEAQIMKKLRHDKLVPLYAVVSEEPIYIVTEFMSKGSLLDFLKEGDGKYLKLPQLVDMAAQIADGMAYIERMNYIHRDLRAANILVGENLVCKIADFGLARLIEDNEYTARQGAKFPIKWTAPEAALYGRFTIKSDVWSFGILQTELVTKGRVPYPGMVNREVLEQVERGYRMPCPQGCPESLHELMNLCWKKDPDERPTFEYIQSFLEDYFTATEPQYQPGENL
Sequence of Tyrosine-protein kinase Srms (Q9H3Y6 whole entry): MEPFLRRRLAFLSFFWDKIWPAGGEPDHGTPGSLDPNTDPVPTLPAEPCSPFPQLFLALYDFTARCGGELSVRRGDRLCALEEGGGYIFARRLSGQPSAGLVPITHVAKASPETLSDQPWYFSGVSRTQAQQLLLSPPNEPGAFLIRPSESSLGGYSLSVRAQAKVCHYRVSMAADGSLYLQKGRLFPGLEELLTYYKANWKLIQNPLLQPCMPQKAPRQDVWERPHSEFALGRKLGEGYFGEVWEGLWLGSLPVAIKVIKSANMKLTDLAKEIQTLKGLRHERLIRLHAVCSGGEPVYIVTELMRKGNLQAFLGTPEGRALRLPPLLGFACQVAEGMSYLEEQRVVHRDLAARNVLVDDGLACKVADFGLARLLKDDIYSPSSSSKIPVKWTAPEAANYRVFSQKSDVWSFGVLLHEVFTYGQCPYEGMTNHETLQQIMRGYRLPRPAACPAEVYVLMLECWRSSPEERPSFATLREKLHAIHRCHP

The inhibition is the relative decrease from the control value, in per cent. `Cc1ccc(C(=O)Nc2ccc(OC(F)(F)F)cc2)cc1C#Cc1cc(-c2cnn(C)c2)cnc1N`: the inhibition in [1] was -5%. Further, the inhibition at 0.2 µM with RBL-2H3 worked out at 122%.
The pIC50 is the negative decadic logarithm of the IC50, by convention in mol/L. In the case of `Cc1ccc(C(=O)Nc2ccc(Cl)cc2Cl)cc1C#Cc1cc(-c2cnn(C)c2)cnc1N`, the pIC50 was 7.96 in assay [2]; 8.15 in [3]; 6.79 in [4]; 6.51 in assay [5]; less than 6.00 in assay [8]; less than 6.00 in assay [11]. Moreover, the pIC50 in assay [12] and in assay [13] was less than 6.00 throughout. Further, the inhibition is -3% in [6]; 6% in [7]; 9% in assay [9]; 3% in [10]; 2% in assay [1].
Turning to `Cc1ccc(C(=O)Nc2cc(C(F)(F)F)cc(C(F)(F)F)c2)cc1C#Cc1cc(-c2cnn(C)c2)cnc1N`, the pIC50 in assay [2] is 7.32; in [3] it was 7.66; in assay [4] it was 7.92; in assay [5], 7.25; in [8], 6.94; in assay [11], 7.25. In addition, the negative-log IC50 (pIC50) in assay [12] was 6.73; in assay [13] it was 7.02. Besides, the inhibition in [6] was -1%; in [7] it was 9%; in assay [9], 3%; in [10] it was -1%. Besides, the inhibition at 0.2 µM in the assay on RBL-2H3 worked out at 162%.
